The target in assay [1] is human phosphoinositide-3 kinase (PI3K) delta (Homo sapiens (Human), UniProt O00329). The experiment in a line: PI3K-mediated Akt 1/2 (S473) phosphorylation in Rat-1 cells (AlphaScreen SureFire). Type of assay: cell-based. Particulars: Rat-1 cells overexpressing myristoylated human PI3K delta, p-Akt (Ser473); read-out: Cell PI3Kδ/ IC50 [umol l − 1]. How it is done: Rat-1 cells stably overexpressing a myristoylated form of the catalytic subunit of human phosphoinositide-3 kinase (PI3K) alpha, beta or delta were plated in 384-well plates at a density of 7500 (PI3K alpha), 6200 (PI3K beta), or 4000 (PI3K delta) cells in 30 ul complete growth medium (Dulbecco's modified Eagle's medium (DMEM high glucose) supplemented with 10% (v/v) fetal bovine serum, 1% (v/v) MEM non essential amino acids, 10 mM HEPES, 2 mM L-glutamine, 10 μg/mL puromycin and 1% (v/v) Penicillin/Streptomycin) and were incubated at […]/5% CO2/95% humidity for 24 h. Compounds were diluted in 384-well compound plates to obtain 8-point serial dilutions for 40 test compounds in 90% DMSO, as well as 4 reference compounds plus 16 high controls and 16 low (inhibited) controls. Predilution plates were prepared by dispensing pipetting 250 nl of compound solutions into 384-well polypropylen plates using a Hummingwell nanoliter dispensor. Compounds were prediluted by the addition of 49.75 ul complete growth medium. 10 ul of prediluted compound solution were transferred to the cell plate using a 384-well pipettor, resulting in a final DMSO concentration of 0.11%. Cells were incubated for 1 h at […]/5% CO2/95% humidity. The supernatant was removed, the cells were lysed in 20 ul of lysis buffer for AlphaScreen® SureFire® detection.
Chain of human phosphoinositide-3 kinase (PI3K) delta (O00329 whole entry): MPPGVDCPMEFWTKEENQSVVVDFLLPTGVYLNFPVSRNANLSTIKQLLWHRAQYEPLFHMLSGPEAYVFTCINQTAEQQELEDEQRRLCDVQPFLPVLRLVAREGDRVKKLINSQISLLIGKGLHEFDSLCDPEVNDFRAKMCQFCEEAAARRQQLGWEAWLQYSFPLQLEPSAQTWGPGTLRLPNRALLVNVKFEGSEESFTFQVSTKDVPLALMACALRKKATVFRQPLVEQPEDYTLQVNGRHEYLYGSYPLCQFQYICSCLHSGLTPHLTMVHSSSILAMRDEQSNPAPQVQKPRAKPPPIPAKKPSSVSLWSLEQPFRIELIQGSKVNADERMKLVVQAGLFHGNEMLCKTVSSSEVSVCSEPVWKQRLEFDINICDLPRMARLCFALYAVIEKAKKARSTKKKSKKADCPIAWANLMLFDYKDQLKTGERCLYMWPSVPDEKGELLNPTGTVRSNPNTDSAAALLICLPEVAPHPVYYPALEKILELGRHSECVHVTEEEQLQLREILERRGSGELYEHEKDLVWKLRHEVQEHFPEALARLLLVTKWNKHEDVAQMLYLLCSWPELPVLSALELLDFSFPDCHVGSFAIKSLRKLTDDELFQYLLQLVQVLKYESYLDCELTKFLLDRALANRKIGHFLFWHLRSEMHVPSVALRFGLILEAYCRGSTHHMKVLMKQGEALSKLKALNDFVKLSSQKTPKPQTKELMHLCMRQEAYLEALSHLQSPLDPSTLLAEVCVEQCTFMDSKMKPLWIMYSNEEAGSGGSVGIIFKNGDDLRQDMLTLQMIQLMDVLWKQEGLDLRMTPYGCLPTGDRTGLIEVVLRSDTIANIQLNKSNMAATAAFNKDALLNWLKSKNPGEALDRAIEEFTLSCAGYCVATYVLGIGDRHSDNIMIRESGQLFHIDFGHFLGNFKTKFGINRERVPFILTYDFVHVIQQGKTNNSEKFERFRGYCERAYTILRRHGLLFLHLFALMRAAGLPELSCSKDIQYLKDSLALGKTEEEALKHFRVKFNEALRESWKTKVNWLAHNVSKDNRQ
Chain of human phosphoinositide-3 kinase (PI3K) delta (Q63787 whole entry partner): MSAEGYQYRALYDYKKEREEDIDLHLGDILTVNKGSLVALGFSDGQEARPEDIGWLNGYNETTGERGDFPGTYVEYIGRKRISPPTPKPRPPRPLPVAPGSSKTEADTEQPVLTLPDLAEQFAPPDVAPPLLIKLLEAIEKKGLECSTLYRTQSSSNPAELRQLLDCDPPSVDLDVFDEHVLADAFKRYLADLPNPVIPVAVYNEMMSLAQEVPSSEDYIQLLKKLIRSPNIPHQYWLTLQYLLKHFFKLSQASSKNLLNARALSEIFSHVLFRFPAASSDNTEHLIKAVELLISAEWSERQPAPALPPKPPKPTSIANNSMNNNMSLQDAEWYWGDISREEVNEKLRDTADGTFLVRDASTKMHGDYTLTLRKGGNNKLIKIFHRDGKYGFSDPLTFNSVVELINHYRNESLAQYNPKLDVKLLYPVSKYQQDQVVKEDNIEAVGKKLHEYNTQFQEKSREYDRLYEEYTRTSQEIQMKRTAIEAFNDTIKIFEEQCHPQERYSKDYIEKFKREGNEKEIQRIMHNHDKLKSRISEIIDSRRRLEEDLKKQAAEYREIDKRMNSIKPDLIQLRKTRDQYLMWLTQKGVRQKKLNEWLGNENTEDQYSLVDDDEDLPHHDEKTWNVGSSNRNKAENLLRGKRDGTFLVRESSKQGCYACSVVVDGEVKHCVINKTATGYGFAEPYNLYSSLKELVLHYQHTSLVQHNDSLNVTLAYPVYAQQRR
For detection of p-AKT (Ser473), the SureFire® p-Akt 1/2 (Ser473) Assay Kit (PerkinElmer, U.S.A) was used. 5 ul of cell lysate was transferred to 384-well low volume Proxiplates for detection using a 384-well pipettor. Addition of AlphaScreen® SureFire® reagents was done according to the manufacturer's protocol. First, 5 ul of reaction buffer plus activation buffer mix containing AlphaScreen® acceptor beads was added, the plate was sealed, and incubated on a plate shaker for 2 hours at room temperature. Second, 2 ul of dilution buffer containing AlphaScreen® donor beads was added, and the plate was incubated on plate shaker as above for a further 2 hours. The plate was read on an AlphaScreen® compatible plate reader, using standard AlphaScreen® settings.

Assay [2] has as its system antibody production to sheep red blood cells (SRBC). The assay is described as follows: Antibody production to sheep red blood cells (SRBC), plaque forming assay. Type of assay: in vivo, rat. To be noted: OFA rats, 10 mg/kg bid orally d0-d3, spleens on d4. How it is done:
In brief, OFA rats were injected i.v. with sheep erythrocytes on d0 and treated orally on four consecutive days (d0 to d3) with the compounds under investigation. Spleen cell suspensions were prepared on d4 and lymphocytes were plated onto soft agar in presence of indicator cells (SRBC) and complement. Lysis of the indicator cells due to secretion of SRBC-specific antibody (predominantly of the IgM subclass) and presence of complement yielded plaques. The number of plaques per plate were counted and expressed as number of plaques per spleen.
Immunization: Groups of five female OFA rats were immunized on day 0 with 2×10^8/ml SRBC (obtained from Laboratory Animal Services LAS, Novartis Pharma AG) in a volume of 0.5 ml per rat by i.v. injection. […]
On day 4, animals were euthanized with CO2 Spleens were removed, weighed, and deposited in plastic tubes containing 10 ml of cold (4° C.) Hank's balanced salt solution (HBSS; Gibco, pH 7.3, containing 1 mg Phenolred/100 ml) for each rat spleen. […] Lymphocyte numbers per spleen were determined by automated cell counter and spleen cell suspensions were adjusted to a cell concentration of 30×10^6/ml. […]
In addition, one ml of 0.7% agarose was prepared in plastic tubes and kept at 48° C. in a water bath. […] Plaques were counted with a microscope. […]

The subject of another assay is murine B cells. The assay is described as follows: Murine B cell activation: CD86 upregulation after anti-IgM stimulation. To be noted: Balb/c mouse splenocytes, anti-IgM 24 h, CD86 on CD19+ B cells, read-out: mCD86/IC50 CD86 [nmol l − 1]. It counts as cell-based, mouse. How it is done: Spleens from Balb/c mice were collected, splenocytes were isolated and washed twice with RPMI containing 10% foetal bovine serum (FBS), 10 mM HEPES, 100 Units/mL penicilline/streptomycine. RPMI supplemented in this way is subsequently referred to as medium. The cells were adjusted to 2.5×10^6 cells/mL in medium and 200 μl cell suspension (5×10^6 cells) were added to the appropriate wells of 96 well plates.
Then the cells were stimulated by adding 50 μl anti-IgM mAb in medium (final concentration: 30 μg/mL). After incubation for 24 hours at 37° C., the cells were stained with the following antibody cocktails: anti-mouse CD86-FITC, anti-mouse CD69-PerCP-Cy5.5, anti-mouse CD19-PerCP for the assessment of B cells, and anti-mouse CD3-FITC, anti-mouse CD69-PE for the assessment of T cells (2 μl of each antibody/well). After one hour at room temperature (RT) in the dark the cells were transferred to 96 Deepwell plates. The cells were washed once with 1 mL PBS containing 2% FBS and after re-suspension in 200 μl the samples were analyzed on a FACS Calibur flow cytometer. Lymphocytes were gated in the FSC/SSC dot plot according to size and granularity and further analyzed for expression of CD19, CD3 and activation markers (CD86, CD69). Data were calculated from dot blots as percentage of cells positively stained for activation markers within the CD19+ or CD3+ population using BD CellQest Software.
For assessing the inhibitory property of compounds, compounds were first dissolved and diluted in DMSO followed by a 1:50 dilution in medium. Splenocytes from Balb/c mice were isolated, re-suspended and transfered to 96 well plates as described above (200 μl/well). The diluted compounds or solvent were added to the plates (25 μl) and incubated at 37° C. for 1 hour. Then the cultures were stimulated with 25 μl anti-IgM mAb/well (final concentration […]) for 24 hours at 37° C. and stained with anti-mouse CD86-FITC and anti-mouse CD19-PerCP (2 μl of each antibody/well). CD86 expression on CD19 positive B cells was quantified by flow cytometry as described above.

A further assay has as its target PI3K delta (Homo sapiens (Human), UniProt O00329). The assay is described as follows: Enzymatic PI3K delta isoform inhibition (lipid kinase, Kinase-Glo luminescence). To be noted: enzymatic assay. Type of assay: biochemical.
In another assay the target is PI3K alpha (Homo sapiens (Human), UniProt P42336). The experiment in a line: Enzymatic PI3K alpha isoform inhibition (lipid kinase, Kinase-Glo luminescence). It counts as biochemical.
Chain of PI3K alpha (P42336 other isoform, or with tags, fused parts or gaps): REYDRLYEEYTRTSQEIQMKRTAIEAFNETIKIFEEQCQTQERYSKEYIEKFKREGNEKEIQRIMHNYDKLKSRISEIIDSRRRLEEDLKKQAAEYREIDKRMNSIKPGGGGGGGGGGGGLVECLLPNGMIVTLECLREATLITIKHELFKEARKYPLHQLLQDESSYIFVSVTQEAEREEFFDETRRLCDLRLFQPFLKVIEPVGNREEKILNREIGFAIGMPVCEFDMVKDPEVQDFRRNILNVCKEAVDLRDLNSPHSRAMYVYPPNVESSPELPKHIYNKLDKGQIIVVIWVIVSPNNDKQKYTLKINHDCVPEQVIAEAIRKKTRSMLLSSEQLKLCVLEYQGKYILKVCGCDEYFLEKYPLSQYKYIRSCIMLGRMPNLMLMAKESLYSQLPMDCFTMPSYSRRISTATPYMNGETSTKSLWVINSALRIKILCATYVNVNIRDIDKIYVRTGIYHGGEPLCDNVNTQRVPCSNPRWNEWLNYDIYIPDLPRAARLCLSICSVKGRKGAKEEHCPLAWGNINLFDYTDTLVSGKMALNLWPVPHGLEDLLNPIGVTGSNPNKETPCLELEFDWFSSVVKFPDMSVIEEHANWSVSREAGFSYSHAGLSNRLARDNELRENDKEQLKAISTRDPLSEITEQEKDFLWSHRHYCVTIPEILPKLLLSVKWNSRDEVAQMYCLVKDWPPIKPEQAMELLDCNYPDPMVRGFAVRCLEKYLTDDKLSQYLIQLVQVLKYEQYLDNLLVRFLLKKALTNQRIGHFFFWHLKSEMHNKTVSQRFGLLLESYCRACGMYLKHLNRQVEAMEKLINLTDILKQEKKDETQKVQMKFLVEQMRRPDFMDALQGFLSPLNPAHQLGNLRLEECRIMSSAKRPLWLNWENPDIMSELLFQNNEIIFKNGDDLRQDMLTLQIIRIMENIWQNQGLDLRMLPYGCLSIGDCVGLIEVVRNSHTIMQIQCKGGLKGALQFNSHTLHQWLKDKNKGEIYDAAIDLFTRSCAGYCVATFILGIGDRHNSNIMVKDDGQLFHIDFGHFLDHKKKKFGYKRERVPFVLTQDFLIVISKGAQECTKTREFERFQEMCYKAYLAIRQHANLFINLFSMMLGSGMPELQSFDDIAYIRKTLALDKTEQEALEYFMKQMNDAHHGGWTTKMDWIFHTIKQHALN

Where two headings read alike, the source gives them in different places.

Chain of PI3K delta (O00329 other isoform, or with tags, fused parts or gaps linker GGGGGG): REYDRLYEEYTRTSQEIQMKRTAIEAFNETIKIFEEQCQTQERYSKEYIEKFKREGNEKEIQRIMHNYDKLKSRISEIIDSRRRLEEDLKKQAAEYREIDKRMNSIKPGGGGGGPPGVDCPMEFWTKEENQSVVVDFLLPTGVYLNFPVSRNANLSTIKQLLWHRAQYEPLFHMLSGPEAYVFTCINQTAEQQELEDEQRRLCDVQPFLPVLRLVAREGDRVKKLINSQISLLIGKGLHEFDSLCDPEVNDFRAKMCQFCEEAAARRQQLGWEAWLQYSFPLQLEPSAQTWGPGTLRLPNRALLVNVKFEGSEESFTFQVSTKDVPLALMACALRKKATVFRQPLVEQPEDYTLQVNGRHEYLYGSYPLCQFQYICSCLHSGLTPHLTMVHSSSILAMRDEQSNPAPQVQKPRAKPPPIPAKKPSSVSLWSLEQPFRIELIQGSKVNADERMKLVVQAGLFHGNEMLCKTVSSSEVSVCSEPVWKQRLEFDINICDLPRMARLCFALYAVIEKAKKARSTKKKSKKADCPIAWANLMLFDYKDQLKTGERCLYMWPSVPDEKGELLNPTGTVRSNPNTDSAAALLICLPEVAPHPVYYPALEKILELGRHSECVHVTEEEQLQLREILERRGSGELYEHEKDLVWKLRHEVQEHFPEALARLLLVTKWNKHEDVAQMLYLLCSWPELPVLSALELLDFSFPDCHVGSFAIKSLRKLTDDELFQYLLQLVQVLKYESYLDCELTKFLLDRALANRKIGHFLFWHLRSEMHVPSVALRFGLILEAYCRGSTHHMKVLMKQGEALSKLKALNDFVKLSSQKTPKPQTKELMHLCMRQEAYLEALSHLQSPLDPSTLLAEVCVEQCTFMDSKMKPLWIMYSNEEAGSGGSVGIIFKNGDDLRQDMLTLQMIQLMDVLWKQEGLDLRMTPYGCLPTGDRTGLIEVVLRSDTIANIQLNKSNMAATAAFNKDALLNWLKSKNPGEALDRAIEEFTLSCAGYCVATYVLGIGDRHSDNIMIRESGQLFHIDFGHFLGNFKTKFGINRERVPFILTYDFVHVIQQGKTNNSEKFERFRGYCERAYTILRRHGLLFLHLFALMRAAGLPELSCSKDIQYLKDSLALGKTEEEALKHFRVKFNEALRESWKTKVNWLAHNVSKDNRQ

Turning to `COc1ncc(N2CCc3ncnc(O[C@H]4CCN(C(=O)C5CCOCC5)C4)c3C2)cc1C` [Example 1, {(S)-3-[6-(6-Methoxy-5-methyl-pyridin-3-yl)-5,6,7,8-tetrahydro-pyrido[4,3-d]pyrimidin-4-yloxy]-pyrrolidin-1-yl}-(tetrahydro-pyran-4-yl)-methanone], the IC50 turned out to be 153 nM in assay [1] and 94.9 nM in the assay on murine B cells. The Plaques/spleen in assay [2] stood at 12608 ± 4986.
As to `COc1ncc(N2CCc3ncnc(N[C@H]4CCN(C(=O)C5CCOCC5)C4)c3C2)cc1C(F)(F)F` [Example 68, {(S)-3-[6-(6-Methoxy-5-trifluoromethyl-pyridin-3-yl)-5,6,7,8-tetrahydro-pyrido[4,3-d]pyrimidin-4-ylamino]-pyrrolidin-1-yl}-(tetrahydro-pyran-4-yl)-methanone], the IC50 was 53 nM in assay [1], 14.9 nM with murine B cells, 7 nM against PI3K delta and 43 nM against PI3K alpha (enzymatic assay).
Consider `COc1ncc(N2CCc3ncnc(N[C@H]4CCN(C(=O)C5CCOC(C)(C)C5)C4)c3C2)cc1C(F)(F)F` (stereo partly drawn) [Example 71, (2,2-Dimethyl-tetrahydro-pyran-4-yl)-{(S)-3-[6-(6-methoxy-5-trifluoromethyl-pyridin-3-yl)-5,6,7,8-tetrahydro-pyrido[4,3-d]pyrimidin-4-ylamino]-pyrrolidin-1-yl}-methanone], for which the IC50 in assay [1] was determined as 35 nM; with murine B cells, 24.7 nM; on PI3K delta it was 3 nM; at PI3K alpha, 57 nM.
In the case of `CCC(=O)N1CC[C@H](Nc2ncnc3c2CN(c2cnc(OC)c(C)c2)CC3)C1` [Example 81, 1-{(S)-3-[6-(6-Methoxy-5-methyl-pyridin-3-yl)-5,6,7,8-tetrahydro-pyrido[4,3-d]pyrimidin-4-ylamino]-pyrrolidin-1-yl}-propan-1-one], the IC50 in assay [1] was 246 nM; in the assay on murine B cells, 86.5 nM; at PI3K delta, 20 nM; against PI3K alpha (enzymatic assay), 651 nM.
For `COc1ncc(N2CCc3ncnc(N[C@H]4CCN(C(=O)C5CCOCC5)C4)c3C2)cc1Cl` [Example 82, {(S)-3-[6-(5-Chloro-6-methoxy-pyridin-3-yl)-5,6,7,8-tetrahydro-pyrido[4,3-d]pyrimidin-4-ylamino]-pyrrolidin-1-yl}-(tetrahydro-pyran-4-yl)-methanone], the IC50 worked out at 116 nM in assay [1], 46.2 nM in the assay on murine B cells, 3 nM on PI3K delta and 66 nM at PI3K alpha (enzymatic assay).

Source of the values: US8653092B2, “Tetrahydro-pyrido-pyrimidine derivatives” (Novartis AG, priority 2010, dated 2014).
